Assay results from publication PMC5983663, “Design, Synthesis, and Biological Evaluation of Benzimidazole-Derived Biocompatible Copper(II) and Zinc(II) Complexes as Anticancer Chemotherapeutics” (International Journal of Molecular Sciences, 2018).

Legend:
Experiment in all cases: MTT assay
Format in all cases: cell-based, human
MDA-MB 231 (Breast) = details: MDA-MB 231, 48 h; NA stands for Not Active
Procedure: (§1) Human cancer cell lines HepG2 (Liver), SK-MEL-1 (Skin), HT 018 (Colon), HeLa (Cervical), and MDA-MB 231 (Breast) were procured from the American Type Culture Collection (Rockville, MD, USA). MDA-MB-231 and HepG2 cell lines were maintained in DMEM; whereas SK-MEL-1, HeLa, and HT-018 were maintained in RPMI medium. The complete growth medium was supplemented with 10% (v/v) heat-inactivated FCS, 2 mM L-glutamine, and antimycotic-antibiotic solution. All of the cells were maintained in a standard culture condition of 37 °C temperature and 95% humidified atmosphere containing 5% CO2. Cells were screened periodically for mycoplasma contamination.
(§2) The novel complexes 1 and 2 were examined for their cytotoxicity against five different types of cancer cell lines viz., HepG2, SK-MEL-1, HT 018, HeLa, and MDA-MB 231 using a standard MTT reduction assay, according to Khan et al. (2012). Briefly, cells at a concentration of 1 × 10^6 cells/[…]/well were plated in 96-well plates and further grown in their respective medium containing 10% FCS. After 24 h, cells were incubated with 0–25 μM concentrations of test complexes or respective free ligands. Cells with 0.1% DMSO (vehicle control) and cisplatin (positive control) were also cultured under the same conditions. Cells only were used as negative control. Ensuing 48 h of incubation, old medium from treated cells was replaced with fresh medium. MTT reagent (5 mg/mL in PBS) was added to each well, and cells were further incubated for 2–3 h at 37 °C. After treatment, the supernatants were carefully removed, and 100 μL of DMSO was added to each well. Absorbance was measured at 620 nm in a multi-well plate reader, and drug sensitivity was expressed in terms of the concentration of drug required for a 50% reduction of cell viability (IC50).

SK-MEL-1 (Skin) = details: SK-MEL-1, 48 h; NA stands for Not Active
Procedure: as §1, §2

HeLa (Cervical) = details: 48 h, NA stands for Not Active
Procedure: as §1, §2

HT018 (Colon) = details: HT018, 48 h; NA stands for Not Active
Procedure: as §1, §2

HepG2 (Liver) = details: HepG2, 48 h; NA stands for Not Active
Procedure: as §1, §2

`N.N.[Cl][Pt][Cl]` [Cisplatin, cisplatin, reference compound] showed an IC50 (MDA-MB 231 (Breast)) of 3.1 ± 0.2 µM, an IC50 (SK-MEL-1 (Skin)) of 5.6 ± 0.8 µM and an IC50 (HeLa (Cervical)) of 6 ± 0.6 µM. It also gave an IC50 (HT018 (Colon)) of 5.7 ± 0.2 µM and an IC50 (HepG2 (Liver)) of 6 ± 0.4 µM.
